Data published in PubChem BioAssay (NCI).
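Grown in 96-well plates, cells were treated for 48 hours with each compound at five concentrations. Insufficient inhibition: endpoint recorded as highest concentration tested. GI50: concentration for 50% inhibition of growth. The concentration for full growth arrest is given as TGI.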

What was measured:
Experiment in all cases: NCI anticancer screen, dose series, 48 h
OVCAR-4 ovarian = tested on: OVCAR-4 ovarian
T-47D breast = tested on: T-47D breast
SN12C renal = tested on: SN12C renal
K-562 leukemia = tested on: K-562 leukemia
786-0 renal = tested on: 786-0 renal
KM12 colon = tested on: KM12 colon
U251 CNS = tested on: U251 CNS
SR leukemia = tested on: SR leukemia
LOX IMVI melanoma = tested on: LOX IMVI melanoma
NCI-H522 lung = tested on: NCI-H522 lung
DU-145 prostate = tested on: DU-145 prostate
SF-539 CNS = tested on: SF-539 CNS
ACHN renal = tested on: ACHN renal
A549 NSCLC = tested on: A549 NSCLC
HCC-2998 colon = tested on: HCC-2998 colon
RPMI-8226 leukemia = tested on: RPMI-8226 leukemia
SF-268 CNS = tested on: SF-268 CNS
SK-OV-3 ovarian = tested on: SK-OV-3 ovarian
MCF7 breast = tested on: MCF7 breast
EKVX NSCLC = tested on: EKVX NSCLC
BT-549 breast = tested on: BT-549 breast
SK-MEL-28 melanoma = tested on: SK-MEL-28 melanoma
HS 578T breast = tested on: HS 578T breast
NCI-H226 lung = tested on: NCI-H226 lung
SF-295 CNS = tested on: SF-295 CNS
OVCAR-8 ovarian = tested on: OVCAR-8 ovarian
HL-60(TB) leukemia = tested on: HL-60(TB) leukemia
NCI-H460 lung = tested on: NCI-H460 lung
HOP-62 NSCLC = tested on: HOP-62 NSCLC
OVCAR-5 ovarian = tested on: OVCAR-5 ovarian
NCI-H23 lung = tested on: NCI-H23 lung
NCI/ADR-RES ovarian = tested on: NCI/ADR-RES ovarian
UACC-257 melanoma = tested on: UACC-257 melanoma
CAKI-1 renal = tested on: CAKI-1 renal
UO-31 renal = tested on: UO-31 renal
SK-MEL-2 melanoma = tested on: SK-MEL-2 melanoma
HOP-92 NSCLC = tested on: HOP-92 NSCLC
A498 renal = tested on: A498 renal
HCT-116 colon = tested on: HCT-116 colon
MDA-MB-468 breast = tested on: MDA-MB-468 breast
IGROV1 ovarian = tested on: IGROV1 ovarian
OVCAR-3 ovarian = tested on: OVCAR-3 ovarian
HT29 colon = tested on: HT29 colon
CCRF-CEM leukemia = tested on: CCRF-CEM leukemia
RXF 393 renal = tested on: RXF 393 renal
MOLT-4 leukemia = tested on: MOLT-4 leukemia
SNB-19 CNS = tested on: SNB-19 CNS
SK-MEL-5 melanoma = tested on: SK-MEL-5 melanoma
SNB-75 CNS = tested on: SNB-75 CNS
M14 melanoma = tested on: M14 melanoma
UACC-62 melanoma = tested on: UACC-62 melanoma
PC-3 prostate = tested on: PC-3 prostate
COLO 205 colon = tested on: COLO 205 colon
MDA-MB-231 breast = tested on: MDA-MB-231 breast
MDA-MB-435 = tested on: MDA-MB-435
TK-10 renal = tested on: TK-10 renal
HCT-15 colon = tested on: HCT-15 colon
MALME-3M melanoma = tested on: MALME-3M melanoma

CC1=C2C(=C[C@@](C)(COCOCCCl)[C@@H]2O)C(=O)[C@](C)(O)C12CC2
GI50 (OVCAR-4 ovarian): 265 nM | TGI (OVCAR-4 ovarian): 860 nM | GI50 (T-47D breast): 506 nM | TGI (T-47D breast): 5690 nM | GI50 (SN12C renal): 299 nM | TGI (SN12C renal): 1200 nM | GI50 (K-562 leukemia): 445 nM | TGI (K-562 leukemia): > 100000 nM | GI50 (786-0 renal): 638 nM | TGI (786-0 renal): 1980 nM | GI50 (KM12 colon): 350 nM | TGI (KM12 colon): 4830 nM | GI50 (U251 CNS): 113 nM | TGI (U251 CNS): 19900 nM | GI50 (SR leukemia): 64.7 nM | TGI (SR leukemia): > 100000 nM | GI50 (LOX IMVI melanoma): 137 nM | TGI (LOX IMVI melanoma): 493 nM | GI50 (NCI-H522 lung): 184 nM | TGI (NCI-H522 lung): 495 nM | GI50 (DU-145 prostate): 142 nM | TGI (DU-145 prostate): 1510 nM | GI50 (SF-539 CNS): 202 nM | TGI (SF-539 CNS): 447 nM | GI50 (ACHN renal): 55.4 nM | TGI (ACHN renal): 387 nM | GI50 (A549 NSCLC): 322 nM | TGI (A549 NSCLC): 6860 nM | GI50 (HCC-2998 colon): 199 nM | TGI (HCC-2998 colon): 495 nM | GI50 (RPMI-8226 leukemia): 3750 nM | TGI (RPMI-8226 leukemia): > 58300 nM | GI50 (SF-268 CNS): 305 nM | TGI (SF-268 CNS): 1700 nM | GI50 (SK-OV-3 ovarian): 415 nM | TGI (SK-OV-3 ovarian): 2170 nM | GI50 (MCF7 breast): 45 nM | TGI (MCF7 breast): 3180 nM | GI50 (EKVX NSCLC): 285 nM | TGI (EKVX NSCLC): 870 nM | GI50 (BT-549 breast): 243 nM | TGI (BT-549 breast): 786 nM | GI50 (SK-MEL-28 melanoma): 389 nM | TGI (SK-MEL-28 melanoma): 1310 nM | GI50 (HS 578T breast): 598 nM | TGI (HS 578T breast): 4000 nM | GI50 (NCI-H226 lung): 845 nM | TGI (NCI-H226 lung): 4010 nM | GI50 (SF-295 CNS): 234 nM | TGI (SF-295 CNS): 7760 nM | GI50 (OVCAR-8 ovarian): 211 nM | TGI (OVCAR-8 ovarian): 790 nM | GI50 (HL-60(TB) leukemia): 126 nM | TGI (HL-60(TB) leukemia): 2130 nM | GI50 (NCI-H460 lung): 113 nM | TGI (NCI-H460 lung): 656 nM | GI50 (HOP-62 NSCLC): 344 nM | TGI (HOP-62 NSCLC): 1880 nM | GI50 (OVCAR-5 ovarian): 178 nM | TGI (OVCAR-5 ovarian): 1070 nM | GI50 (NCI-H23 lung): 105 nM | TGI (NCI-H23 lung): 304 nM | GI50 (NCI/ADR-RES ovarian): 160 nM | TGI (NCI/ADR-RES ovarian): 438 nM | GI50 (UACC-257 melanoma): 647 nM | TGI (UACC-257 melanoma): 3970 nM | GI50 (CAKI-1 renal): 263 nM | TGI (CAKI-1 renal): 2100 nM | GI50 (UO-31 renal): 186 nM | TGI (UO-31 renal): 549 nM | GI50 (SK-MEL-2 melanoma): 184 nM | TGI (SK-MEL-2 melanoma): 350 nM | GI50 (HOP-92 NSCLC): 248 nM | TGI (HOP-92 NSCLC): 685 nM | GI50 (A498 renal): 1610 nM | TGI (A498 renal): 4990 nM | GI50 (HCT-116 colon): 128 nM | TGI (HCT-116 colon): > 41500 nM | GI50 (MDA-MB-468 breast): 123 nM | TGI (MDA-MB-468 breast): 299 nM | GI50 (IGROV1 ovarian): 229 nM | TGI (IGROV1 ovarian): 961 nM | GI50 (OVCAR-3 ovarian): 265 nM | TGI (OVCAR-3 ovarian): 765 nM | GI50 (HT29 colon): 174 nM | GI50 (CCRF-CEM leukemia): 626 nM | TGI (CCRF-CEM leukemia): > 33800 nM | GI50 (RXF 393 renal): 154 nM | TGI (RXF 393 renal): 351 nM | GI50 (MOLT-4 leukemia): 141 nM | TGI (MOLT-4 leukemia): > 48300 nM | GI50 (SNB-19 CNS): 346 nM | TGI (SNB-19 CNS): 2460 nM | GI50 (SK-MEL-5 melanoma): 209 nM | TGI (SK-MEL-5 melanoma): 499 nM | GI50 (SNB-75 CNS): 241 nM | TGI (SNB-75 CNS): 1250 nM | GI50 (M14 melanoma): 285 nM | TGI (M14 melanoma): 990 nM | GI50 (UACC-62 melanoma): 198 nM | TGI (UACC-62 melanoma): 429 nM | GI50 (PC-3 prostate): 230 nM | GI50 (COLO 205 colon): 258 nM | TGI (COLO 205 colon): 924 nM | GI50 (MDA-MB-231 breast): 294 nM | TGI (MDA-MB-231 breast): 1030 nM | GI50 (MDA-MB-435): 322 nM | TGI (MDA-MB-435): 1090 nM | GI50 (TK-10 renal): 429 nM | GI50 (HCT-15 colon): 64.4 nM | TGI (HCT-15 colon): 2550 nM | GI50 (MALME-3M melanoma): 229 nM | TGI (MALME-3M melanoma): 509 nM
